Data reported in patent publication US20100311694A1, “Set of Geldanamycin Derivatives and Their Preparation Methods” (Institute of Medicinal Biotechnology, Chinese Academy of …, priority 2008, published 2010).

Legend:
HBV = assay: Anti-HBV activity (HBV DNA in cell lysate, spot hybridization); assay type: cell-based; conditions: HBV DNA content of the cells, reagent solution changed every 4 days
Method: Test Procedure for Anti-HBV Activity
Using cell culture method, the preparation of the cells to be tested (100,000 cell's/mL) is inoculated into cell culture plate in 100 μl each well and the cells are cultured 24 h at 37° C. in 5% CO2. Tests are carried out when the cells grow into a monolayer. The target compounds as well as the controls are prepared into a series of solutions of appropriate concentrations using the culture medium and are added into 96 well culture plate respectively in 4 wells per one concentration. Then the reagent solution in each well is changed into the fresh reagent solution with the same concentration every 4 days. A cell control without reagent treatment is simultaneously is set up. The observation index is based upon the pathological changes of the cells by observing the degrees of the pathological changes of the cells under microscope every 8 days. […] Cell control without drug treatment is simultaneously is set up. The reagent solution or control medium in each well is changed into the fresh reagent solution or fresh medium respectively every 4 days. After cytolysis of the cells, HBV DNA is extracted from the cell lysis solution according to the molecular cloning technical procedure. The spots of different samples are hybridized and the A values of different hybridized spots are measured using autoradiograghic technique. The HBV DNA contents in the cell control as well as in the drug treated samples are calculated using the regression equations obtained from the standard curves to obtain half effective concentration values, the results are shown in Table 1.

HIV-1 = assay: Anti HIV-1 activity (HIV-1 P24 antigen in cell cultures); assay type: cell-based; conditions: 4 days after addition of the reagents
Method: Test Procedure of Anti HIV-1 Activity
8 reagent solutions of different diluted concentrations and positive control solutions are added into cell cultures in 96 well plate respectively. The sample of each diluted solutions is made duplicately and a control cell sample is also is set up. 100 μl of cell sample at a concentration of 2×10^5cells/ml is inoculated into the wells containing reagent in the plate. The cells samples are cultured in a saturated humidity culture chamber (at a 5% CO2 atmosphere) at 37° C. The pathological changes of cells are observed daily.

COC1C=CC=C(C)C(=O)NC2=CC(=O)C(NCC(O)c3ccccc3)=C(CC(C)CC(OC)C(O)C(C)C=C(C)C1OC(N)=O)C2=O (stereo not shown) [GM-W9]
Activity of HBV inhibition IC50 (HBV): 3.2 µg/mL | Activity of HIV inhibition IC50 (HIV-1): 2.46 µg/mL

COC1C=CC=C(C)C(=O)NC2=CC(=O)C(NC(CO)C(C)C)=C(CC(C)CC(OC)C(O)C(C)C=C(C)C1OC(N)=O)C2=O (stereo not shown) [GM-W58]
Activity of HBV inhibition IC50 (HBV): 0.64 µg/mL | Activity of HIV inhibition IC50 (HIV-1): 1.39 µg/mL

COC1C=CC=C(C)C(=O)NC2=CC(=O)C(NCCCn3ccnc3)=C(CC(C)CC(OC)C(O)C(C)C=C(C)C1OC(N)=O)C2=O (stereo not shown) [GM-129, 17-(3′-(1″-imidazolyl)propylamino)-17-demethoxy geldanamycin]
Activity of HBV inhibition IC50 (HBV): 0.32 µg/mL | Activity of HIV inhibition IC50 (HIV-1): 1.92 µg/mL

COC1C=CC=C(C)C(=O)NC2=CC(=O)C(NC3CCNCC3)=C(CC(C)CC(OC)C(O)C(C)C=C(C)C1OC(N)=O)C2=O (stereo not shown) [GM-W37]
Activity of HBV inhibition IC50 (HBV): 1.32 µg/mL | Activity of HIV inhibition IC50 (HIV-1): 1.43 µg/mL

COC1C=CC=C(C)C(=O)NC2=CC(=O)C(NCCc3c[nH]c4ccccc34)=C(CC(C)CC(OC)C(O)C(C)C=C(C)C1OC(N)=O)C2=O (stereo not shown) [GM-W90]
Activity of HBV inhibition IC50 (HBV): 0.93 µg/mL | Activity of HIV inhibition IC50 (HIV-1): 1.23 µg/mL

COC1C=CC=C(C)C(=O)NC2=CC(=O)C(NNC(=O)c3ccco3)=C(CC(C)CC(OC)C(O)C(C)C=C(C)C1OC(N)=O)C2=O (stereo not shown) [GM-W4]
Activity of HBV inhibition IC50 (HBV): 3.2 µg/mL | Activity of HIV inhibition IC50 (HIV-1): 0.33 µg/mL

COC1C=CC=C(C)C(=O)NC2=CC(=O)C(NN3CCOCC3)=C(CC(C)CC(OC)C(O)C(C)C=C(C)C1OC(N)=O)C2=O (stereo not shown) [GM-W68]
Activity of HBV inhibition IC50 (HBV): 4.6 µg/mL | Activity of HIV inhibition IC50 (HIV-1): 10.46 µg/mL

COC1C=CC=C(C)C(=O)NC2=CC(=O)C(NC3CC(C)(C)N(C)C(C)(C)C3)=C(CC(C)CC(OC)C(O)C(C)C=C(C)C1OC(N)=O)C2=O (stereo not shown) [GM-W69]
Activity of HBV inhibition IC50 (HBV): 10.8 µg/mL | Activity of HIV inhibition IC50 (HIV-1): 22.23 µg/mL

COC1C=CC=C(C)C(=O)NC2=CC(=O)C(NCc3ccncc3)=C(CC(C)CC(OC)C(O)C(C)C=C(C)C1OC(N)=O)C2=O (stereo not shown) [GM-W1]
Activity of HBV inhibition IC50 (HBV): 0.69 µg/mL | Activity of HIV inhibition IC50 (HIV-1): 36.7 µg/mL

17-(4′-((5″-(4′″-amino-2′″-oxopyrimidine-1′″-(2H)-yl)-3″,4″-dihydroxyl-tetrahydrofuran-2″yl)methoxyl)-4′-oxobutylamino)-17-de methoxy geldanamycin [GM-CY]
Activity of HBV inhibition IC50 (HBV): 0.032 µg/mL | Activity of HIV inhibition IC50 (HIV-1): 0.02 µg/mL

COC1C=CC=C(C)C(=O)NC2=CC(=O)C(NCCOS(=O)(=O)O)=C(CC(C)CC(OC)C(O)C(C)C=C(C)C1OC(N)=O)C2=O (stereo not shown) [GM-W17]
Activity of HBV inhibition IC50 (HBV): 10.3 µg/mL | Activity of HIV inhibition IC50 (HIV-1): 23.47 µg/mL

COC1C=CC=C(C)C(=O)NC2=CC(=O)C(NCC3(O)CCCCC3)=C(CC(C)CC(OC)C(O)C(C)C=C(C)C1OC(N)=O)C2=O (stereo not shown) [GM-W65]
Activity of HBV inhibition IC50 (HBV): 3.1 µg/mL | Activity of HIV inhibition IC50 (HIV-1): 6.81 µg/mL

CCC(CO)(CO)NC1=C2CC(C)CC(OC)C(O)C(C)C=C(C)C(OC(N)=O)C(OC)C=CC=C(C)C(=O)NC(=CC1=O)C2=O (stereo not shown) [GM-W63]
Activity of HBV inhibition IC50 (HBV): 3.2 µg/mL | Activity of HIV inhibition IC50 (HIV-1): 1.37 µg/mL

COC1C=CC=C(C)C(=O)NC2=CC(=O)C(NCCNC(=O)c3cccnc3)=C(CC(C)CC(OC)C(O)C(C)C=C(C)C1OC(N)=O)C2=O (stereo not shown) [GM-418, 17-(2′-nicotinamidoethylamino)-17-demethoxy geldanamycin]
Activity of HBV inhibition IC50 (HBV): 0.08 µg/mL | Activity of HIV inhibition IC50 (HIV-1): 0.37 µg/mL

COC1C=CC=C(C)C(=O)NC2=C(NCC3CCCO3)C(=O)C(NCC3CCCO3)=C(CC(C)CC(OC)C(O)C(C)C=C(C)C1OC(N)=O)C2=O (stereo not shown) [THFM-GM2]
Activity of HBV inhibition IC50 (HBV): 0.064 µg/mL | Activity of HIV inhibition IC50 (HIV-1): 0.24 µg/mL

COC1C=CC=C(C)C(=O)NC2=CC(=O)C(NCCCN3CCOCC3)=C(CC(C)CC(OC)C(O)C(C)C=C(C)C1OC(N)=O)C2=O (stereo not shown) [GM-W46]
Activity of HBV inhibition IC50 (HBV): 1.49 µg/mL | Activity of HIV inhibition IC50 (HIV-1): 1.32 µg/mL

COC1C=CC=C(C)C(=O)NC2=CC(=O)C(NC(C)(CO)CO)=C(CC(C)CC(OC)C(O)C(C)C=C(C)C1OC(N)=O)C2=O (stereo not shown) [GM-W6]
Activity of HBV inhibition IC50 (HBV): 1.32 µg/mL | Activity of HIV inhibition IC50 (HIV-1): 1.47 µg/mL

COC1C=CC=C(C)C(=O)NC2=CC(=O)C(NN3CCCCC3)=C(CC(C)CC(OC)C(O)C(C)C=C(C)C1OC(N)=O)C2=O (stereo not shown) [GM-W11]
Activity of HBV inhibition IC50 (HBV): 8.0 µg/mL | Activity of HIV inhibition IC50 (HIV-1): 3.87 µg/mL

COC1C=CC=C(C)C(=O)NC2=CC(=O)C(NC(CO)c3cc(Cl)cc(Cl)c3)=C(CC(C)CC(OC)C(O)C(C)C=C(C)C1OC(N)=O)C2=O (stereo not shown) [GM-W81]
Activity of HBV inhibition IC50 (HBV): 2.3 µg/mL | Activity of HIV inhibition IC50 (HIV-1): 2.46 µg/mL

COC1C=CC=C(C)C(=O)NC2=CC(=O)C(Nn3cnnc3)=C(CC(C)CC(OC)C(O)C(C)C=C(C)C1OC(N)=O)C2=O (stereo not shown) [GM-W77]
Activity of HBV inhibition IC50 (HBV): 7.36 µg/mL | Activity of HIV inhibition IC50 (HIV-1): 8.97 µg/mL
